The results in this text go back to PubChem BioAssay (NCI).

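Method: 48-hour compound exposure of cells in 96-well plates, five concentrations, linear interpolation of endpoints. At the TGI there is no net growth.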

Assay in all cases: inhibition of tumour cell growth, NCI panel, 48 h
Experiment [1] deals with A549 NSCLC.
For experiment [2], the system named is COLO 205 colon.
Experiment [3] deals with EKVX NSCLC.
Experiment [4] concerns HCT-116 colon.
Experiment [5] relates to HCT-15 colon.
Experiment [6] has as its system K-562 leukemia.
For experiment [7], the system named is MALME-3M melanoma.
For experiment [8], the system named is MOLT-4 leukemia.
Experiment [9] concerns NCI-H226 lung.
Experiment [10] concerns NCI-H522 lung.
The test system of experiment [11] is OVCAR-3 ovarian.
Experiment [12] has as its system SF-539 CNS.
The test system of experiment [13] is SK-MEL-5 melanoma.
For experiment [14], the system named is SW-620 colon.
The test system of experiment [15] is SK-MEL-2 melanoma.

With `Clc1nc(Cl)c(Cl)c(Cl)n1`, the TGI is 40.5 µM in [1]; 24.1 µM in experiment [2]; 94.4 µM in [3]; 38.2 µM in experiment [4]; 38.1 µM in experiment [5]; 28 µM in experiment [6]. Further, the TGI in [7] was 35.9 µM; in [8] it was 15.5 µM; in experiment [9] it was 42.8 µM; in experiment [10], 35 µM; in experiment [11], 31.7 µM; in [12], 47.9 µM. For the same compound, the TGI in [13] amounted to 32.2 µM; in [14], 20.1 µM.
Turning to `CCCCCCCCCCCCCCCCSCC(COC)COP(=O)([O-])OCC[N+](C)(C)C` (stereo not drawn), the TGI was 20.5 µM in [1]; 3.96 µM in [2]; 28.4 µM in experiment [3]; 18.7 µM in [4]; 10.3 µM in experiment [5]; 28 µM in [6]. Besides, the TGI in experiment [7] was 29.4 µM; in experiment [8], 6.05 µM; in [9] it was 9.24 µM; in experiment [10], 10.9 µM; in experiment [11], 17 µM; in experiment [12] it was 29.7 µM. Moreover, the TGI in [15] is 29.6 µM; in [13], 25.2 µM; in experiment [14], 17.7 µM.
Take `C=C1C[C@@H](O)C[C@@]2(C)C[C@@H]3OC(=O)C(=C)[C@@H]3C[C@H]12`: the TGI in [1] was 81 µM; in experiment [2], 3.02 µM; in [4], 11.9 µM; in [5], 18.2 µM; in experiment [6], greater than 100 µM; in experiment [7], 13.4 µM. Moreover, the TGI in [8] amounted to 16.1 µM; in [9], 37.7 µM; in experiment [10], 21.6 µM; in experiment [11], 35.2 µM; in experiment [12], 23.1 µM; in experiment [15], 39.3 µM. Further, the TGI was 11.7 µM in experiment [13] and 18.1 µM in [14].
As for `C=C1C(=O)OC2(C)C3CCC(C3)C12` (stereo not drawn), the TGI is greater than 100 µM in experiment [1]; 48.4 µM in experiment [2]; greater than 100 µM in experiment [3]; greater than 100 µM in experiment [4]; greater than 100 µM in experiment [5]; greater than 100 µM in experiment [6]. In addition, the TGI in experiment [7] is greater than 100 µM; in experiment [8], greater than 100 µM; in [9] it was greater than 100 µM; in experiment [10], 85.8 µM; in experiment [11], greater than 100 µM; in experiment [12] it was greater than 100 µM. In addition, the TGI in experiment [15], in [13] and in [14] was greater than 100 µM each time.
Regarding `O=C1CC(=O)c2c(O)cc(O)c(c2O)-c2c(ccc(O)c2O)C2=CC(=O)c3c(O)cc(O)c(c3O2)-c2c1ccc(O)c2O` (tested in a mixture with another compound), the TGI in [1], in experiment [2], in experiment [3], in experiment [4], in [5] and in experiment [6] was greater than 50 µM throughout. The TGI in [7], in experiment [8], in experiment [9], in experiment [11], in experiment [12] and in experiment [15] was greater than 50 µM each time. Moreover, the TGI in [13] and in experiment [14] was greater than 50 µM in each case.
Consider `CCOC(=O)c1sc2nc(SC)nc3c2c1NC(=O)CN3c1cccc(F)c1`, for which the TGI in experiment [1] was 28 µM; in experiment [2], greater than 100 µM; in experiment [3] it was greater than 100 µM; in experiment [4], 53 µM; in [6], 93.3 µM; in experiment [7], greater than 100 µM. Also, the TGI is 67.7 µM in [8]; 31.7 µM in experiment [9]; greater than 100 µM in experiment [10]; 43.9 µM in experiment [11]; 15.7 µM in [12]; 67.6 µM in experiment [15]. The TGI in experiment [13] and in [14] was greater than 100 µM in each case.
`Cc1c(C(=O)N2CCN(c3ccc([N+](=O)[O-])cc3)CC2)[n+](=O)c2cc(Cl)c(Cl)cc2n1[O-]`: the TGI is 48.5 µM in [1]; greater than 100 µM in [2]; 41.1 µM in experiment [3]; 40.5 µM in [4]; 36.2 µM in experiment [5]; greater than 100 µM in [6]. Also, the TGI in experiment [7] is 48.4 µM; in experiment [8], greater than 100 µM; in experiment [10], 32.7 µM; in [11], 43.2 µM; in [12], 32.6 µM; in experiment [15], greater than 100 µM. Besides, the results for the TGI in [13] and in [14] were 24.6 µM and greater than 100 µM, respectively.
For `CCOc1cc(NC(C)=O)ccc1C(=O)NN1C(=O)C(Oc2ccccc2)C1c1ccccc1` (stereo not drawn), the TGI in experiment [2], in experiment [3], in [4], in [5], in [6] and in experiment [7] was greater than 100 µM throughout. In addition, the TGI in experiment [8] is 20.4 µM; in experiment [9] it was greater than 100 µM; in experiment [10], greater than 100 µM; in experiment [11], greater than 100 µM; in experiment [12], greater than 100 µM; in experiment [15], greater than 100 µM. For the same compound, the TGI in experiment [13] and in [14] was greater than 100 µM in each case.
With `Cc1cc(O)c2c(c1O)C(=O)C13C(=C2O)C(=O)C2C(O)C1C1C(O)C3C(=O)C3=C(O)c4c(O)cc(C)c(O)c4C(=O)C321` (stereo not drawn), the TGI in experiment [1] was 1.08 µM; in [2] it was 0.112 µM; in experiment [3], 1.84 µM; in experiment [4], 0.168 µM; in experiment [5], 0.182 µM; in experiment [6] it was 0.56 µM. For the same compound, the TGI in [7] came to 0.327 µM; in experiment [8] it was 0.483 µM; in experiment [9], 0.879 µM; in experiment [10], 0.543 µM; in experiment [12] it was 0.278 µM; in [15], 0.468 µM. For the same compound, the TGI in experiment [13] was found to be 0.364 µM; in experiment [14], 0.313 µM.
